Patent US9326513B2, “Fungicidal compositions” (Syngenta Participations AG, priority 2011, dated 2016)
Several values for one entry are separate records, joined by “and”; a condition that tells them apart may be missing. Equal entries are not always repeated.

Legend:
[1] = tested on: Mycosphaerella arachidis (y. Cercospora arachidicola); assay: Mycosphaerella arachidis (brown leaf spot of groundnut), PDB microtiter plate, visual after 5-6 days; type: cell-based; details: single compound
[2] = tested on: Fusarium graminearum and Fusarium culmorum; type: in vivo; details: solo, 200 g a.i./ha; wheat, 1 day preventive, 9 days after application
Septoria tritici [3] = assay: Septoria tritici (leaf blotch), YBG microtiter plate, photometric growth inhibition after 6 days; type: cell-based; details: Zymoseptoria tritici, 144 h, solo
[4] = tested on: Puccinia recondita f. sp. tritici; assay: Puccinia recondita f. sp. tritici / wheat / leaf disc preventative (brown rust); type: in vivo; details: foliar, compared to untreated control leaf disks, read-out: disease control
Text: Puccinia recondita f. sp. tritici/Wheat/Leaf Disc Preventative (Brown Rust) Wheat leaf segments cv. Kanzler were placed on agar in multiwell plates (24-well format) and sprayed with the formulated test compound diluted in water. The leaf disks were inoculated with a spore suspension of the fungus 1 day after application.

Septoria tritici [5] = assay: Septoria tritici (leaf blotch), PDB microtiter plate, visual after 72 hrs; type: cell-based; details: Zymoseptoria tritici, single compound
[6] = tested on: Puccinia recondita f. sp. tritici; assay: Puccinia recondita f. sp. tritici / wheat / leaf disc curative (brown rust); type: in vivo; details: foliar, compared to untreated control leaf disks, read-out: disease control
Procedure: Puccinia recondita f. sp. tritici/Wheat/Leaf Disc Curative (Brown Rust) Wheat leaf segments cv. Kanzler are placed on agar in multiwell plates (24-well format). The leaf segments are inoculated with a spore suspension of the fungus. Plates were stored in darkness at 19° C. and 75% rh. The formulated test compound diluted in water was applied 1 day after inoculation.

[7] = tested on: Blumeria graminis f. sp. tritici (Erysiphe graminis f. sp. tritici); assay: Blumeria graminis f. sp. tritici / wheat / leaf disc preventative (powdery mildew on wheat); type: in vivo; details: foliar, compared to untreated control leaf disks, read-out: disease control
Procedure, shortened: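 Wheat leaf segments (cv. Kanzler) on agar were sprayed with formulated compound in water, inoculated with powdery mildew 1 day later, and kept at 20° C, 60% rh (24 h dark, then 12 h light/12 h dark). Percent disease control versus untreated scored 6-8 days after application; tested at 200 ppm.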

Botrytis cinerea = Botrytis cinerea (gray mould), PDB microtiter plate, visual after 72 hrs; type: cell-based; details: alone
Septoria tritici [8] = assay: Septoria tritici on wheat, preventive treatment; type: in vivo; details: solo, wheat Riband, 1 day preventive, 18 days after application
Sclerotinia sclerotiorum = Sclerotinia sclerotiorum on oilseed rape, preventive treatment; type: in vivo; details: solo, 1 day preventive, 11 days after application
Text: In the following Tables ‘Activity (%)’ means the assessed experimental activity (% disease control in this test when compared to untreated control leaf disks under the same conditions, which show extensive disease development) and “P” is the expected value calculated (expected) activity according to the COLBY formula (see above). The column headed ‘S?’ indicates whether or not synergy was observed, with ‘y’ meaning that synergy was observed.
Sclerotinia sclerotiorum on Oilseed Rape, Preventive Treatment
The compound activity was tested under 1 day preventive conditions. Oilseed rape plants with 3 unfolded leafs were sprayed with a track sprayer and 200 I/ha spray volume with the test compounds, either solo or in tankmix as shown in the table below.
1 day after application the plants were infested with a solution of Sclerotinia sclerotiorum mycelium. The plants were placed under plastic hoods and high humidity conditions in a climate chamber at 14 h day/10 h night cycle and 15° C. Disease infestation was evaluated visually 11 days after application and average activity calculated in relation to disease severity on untreated check.

[9] = tested on: Monographella nivalis (syn. Microdochium nivale, Fusarium nivale); assay: Monographella nivalis (snow mould, foot rot of cereals), PDB microtiter plate, visual after 72 hrs; type: cell-based; details: applied alone
[10] = tested on: Phakopsora pachyrhizi (triazole tolerant soybeanrust strain); assay: Phakopsora pachyrhizi on soybean, preventive treatment; type: in vivo; details: solo, soybean leaf discs, 1 day preventive, 11 days after application

Compound `CCN(C)/C=N/c1cc(Br)c(O[C@H]2CC[C@@H](C(C)C)CC2)nc1C` [Q.135] has an inhibition at 0.00390625 ppm ([1]; Mycosphaerella arachidis, 0.00390625 ppm, read-out: Activity (%)) of 0%, an inhibition at 0.03125 ppm ([1]; Mycosphaerella arachidis, 0.03125 ppm, read-out: Activity (%)) of 50% and an inhibition at 0.0625 ppm ([1]; Mycosphaerella arachidis, 0.0625 ppm, read-out: Activity (%)) of 50%. For the same compound, the inhibition at 0.15625 ppm ([1]; Mycosphaerella arachidis, 0.15625 ppm) was 0%, the “Activity (%)” value ([1]; 0.015625 ppm) was 20% and the “Activity (%)” value ([1]; 0.03125 ppm) was 70%. For the same compound, the “Activity (%)” value ([1]; 0.0625 ppm) was 70%, the Activity [2] was 28% and the inhibition of growth at 0.15625 ppm (Septoria tritici [3]; rate 0.15625 ppm, read-out: Activity) was 29%. It also gave an inhibition of growth at 0.3125 ppm (Septoria tritici [3]; rate 0.3125 ppm) of 34%, an inhibition of growth at 0.625 ppm (Septoria tritici [3]; rate 0.625 ppm) of 32% and an inhibition of growth at 1.25 ppm (Septoria tritici [3]; rate 1.25 ppm) of 22%. For the same compound, the pest or weed control at 200 ppm [4] was ≥ 50%, the inhibition at 0.00390625 ppm (Septoria tritici [5]; 0.00390625 ppm) was 0% and the inhibition at 0.0078125 ppm (Septoria tritici [5]; 0.0078125 ppm) was 0%. It also gave an inhibition at 0.015625 ppm (Septoria tritici [5]; 0.015625 ppm) of 0%, an inhibition at 0.03125 ppm (Septoria tritici [5]; 0.03125 ppm) of 0% and an inhibition at 0.0625 ppm (Septoria tritici [5]; 0.0625 ppm) of 0%. It also gave an inhibition at 0.125 ppm (Septoria tritici [5]; 0.125 ppm) of 0%, an inhibition at 0.25 ppm (Septoria tritici [5]; 0.25 ppm, read-out: Activity (%)) of 0% and an inhibition at 0.5 ppm (Septoria tritici [5]; 0.5 ppm) of 0%. For the same compound, the inhibition at 1 ppm (Septoria tritici [5]; 1 ppm) was 0%, the inhibition at 2 ppm (Septoria tritici [5]; 2 ppm) was 0% and the pest or weed control at 200 ppm [6] was ≥ 50%. The pest or weed control at 200 ppm [7] was ≥ 50%, the inhibition at 0.00390625 ppm (Botrytis cinerea; Botrytis cinerea, rate 0.00390625 ppm) was 0% and the inhibition at 0.0078125 ppm (Botrytis cinerea; Botrytis cinerea, rate 0.0078125 ppm) was 0%. The inhibition at 0.015625 ppm (Botrytis cinerea; Botrytis cinerea, rate 0.015625 ppm) was 0%, the inhibition at 0.03125 ppm (Botrytis cinerea; Botrytis cinerea, rate 0.03125 ppm, read-out: Activity (%)) was 0% and the inhibition at 0.0625 ppm (Botrytis cinerea; Botrytis cinerea, rate 0.0625 ppm, read-out: Activity (%)) was 0%. The inhibition at 0.125 ppm (Botrytis cinerea; Botrytis cinerea, rate 0.125 ppm) was 0%, the inhibition at 0.25 ppm (Botrytis cinerea; Botrytis cinerea, rate 0.25 ppm) was 0% and the inhibition at 2 ppm (Botrytis cinerea; Botrytis cinerea, rate 2 ppm) was 70%. The “Activity (%)” value (Botrytis cinerea; rate 0.5 ppm) was 20%, the “Activity (%)” value (Botrytis cinerea; rate 1 ppm) was 20% and the “Activity (%)” value (Botrytis cinerea; rate 2 ppm) was 50%. The Activity (Septoria tritici [8]; 1 g a.i./ha) was 0%, the Activity (Septoria tritici [8]; 3 g a.i./ha) was 0% and 9% and the Activity (Septoria tritici [8]; 9 g a.i./ha) was 33% and 43%. For the same compound, the Activity (Septoria tritici [8]; 27 g a.i./ha) was 52% and 82%, the Activity (Septoria tritici [8]; 81 g a.i./ha) was 70% and the Activity (Sclerotinia sclerotiorum; rate 25 ppm) was 0%. For the same compound, the Activity (Sclerotinia sclerotiorum; rate 50 ppm) was 0%, the Activity (Sclerotinia sclerotiorum; rate 100 ppm) was 15% and the inhibition at 0.0078125 ppm ([9]; Monographella nivalis, rate 0.0078125 ppm) was 0%. For the same compound, the inhibition at 0.015625 ppm ([9]; Monographella nivalis, rate 0.015625 ppm) was 0%, the inhibition at 0.125 ppm ([9]; Monographella nivalis, rate 0.125 ppm) was 70% and the inhibition at 0.3125 ppm ([9]; Monographella nivalis, rate 0.3125 ppm) was 0%. For the same compound, the inhibition at 0.625 ppm ([9]; Monographella nivalis, rate 0.625 ppm) was 50%, the “Activity (%)” value ([9]; rate 0.0625 ppm) was 20% and the Activity ([10]; rate 0.5 g ai/ha) was 13%. For the same compound, the Activity ([10]; rate 2 g ai/ha) was 41%.
